The values below are quoted from earlier work in paper PMC4810081, “Venetoclax (ABT-199) Might Act as a Perpetrator in Pharmacokinetic Drug–Drug Interactions” (Pharmaceutics, 2016).

What is called IC50 is the concentration that gives 50% inhibition.

This data set deals with T1, BCRP (Homo sapiens, UniProt Q9UNQ0).
T1 construct: expressed in transfected cells; host or cells: MDCKII-BCRP (gift of A. H. Schinkel and P. Borst)
On the set-up: method as in PMID 20222053. Conditions: control compound; read-out: IC50 BCRP inhibition, control compound; cited from earlier work.

T1 sequence (Q9UNQ0 whole entry): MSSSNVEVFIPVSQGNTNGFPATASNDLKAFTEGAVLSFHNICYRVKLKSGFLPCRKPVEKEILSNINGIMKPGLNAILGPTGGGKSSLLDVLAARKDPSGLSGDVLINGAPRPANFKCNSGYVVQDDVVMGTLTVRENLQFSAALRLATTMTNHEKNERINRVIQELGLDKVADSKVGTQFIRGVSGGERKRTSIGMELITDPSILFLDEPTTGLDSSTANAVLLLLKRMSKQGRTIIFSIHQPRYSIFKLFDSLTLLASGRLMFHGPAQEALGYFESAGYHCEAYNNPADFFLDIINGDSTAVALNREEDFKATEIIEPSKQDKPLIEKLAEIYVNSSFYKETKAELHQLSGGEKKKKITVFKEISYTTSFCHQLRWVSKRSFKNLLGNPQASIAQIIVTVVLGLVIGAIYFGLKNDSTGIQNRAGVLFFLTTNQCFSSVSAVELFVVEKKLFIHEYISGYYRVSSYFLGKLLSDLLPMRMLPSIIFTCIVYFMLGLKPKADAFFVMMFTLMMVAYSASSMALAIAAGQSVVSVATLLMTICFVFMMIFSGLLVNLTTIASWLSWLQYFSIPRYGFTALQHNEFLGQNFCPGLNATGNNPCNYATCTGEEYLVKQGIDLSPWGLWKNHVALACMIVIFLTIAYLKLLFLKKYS

Take `COc1ccc2c3c([nH]c2c1)[C@H](C=C(C)C)N1C(=O)[C@@H]2CCCN2C(=O)[C@@H]1C3` [FTC, fumitremorgin C]: the IC50 was 700 ± 300 nM.
